Data as given in paper PMC10002984, “Dual PTP1B/TC-PTP Inhibitors: Biological Evaluation of 3-(Hydroxymethyl)cinnoline-4(1H)-Ones” (International Journal of Molecular Sciences, 2023).

How the values were obtained:
[1] = test system: insulin receptor gene (InsR); experiment: Gene expression in the liver of obese rats (qPCR), insulin receptor gene; format: in vivo, rat; details: five-day treatment, difference with Ob group not significant
Description: (§1) Further, six groups were formed: control (Con, n = 10), obesity (Ob, n = 10), obese rats with five-day treatment with compounds 1 (Ob + 1, n = 5), 2 (Ob + 2, n = 5), 3 (Ob + 3, n = 10), and 4 (Ob + 4, n = 10). All compounds were administered in DMSO (300 µL) at a daily dose of 7 mg/kg (1 and 2), 8 mg/kg (3), and 10 mg/kg (4) (i.p.), based on the results of the preliminary experiments. The used doses of compounds 1–4, in terms of the number of moles of each compound per kg of animal body weight, were equivalent. Control and obese rats received DMSO in the same volumes (300 µL), instead of the tested compounds. During the five days of the experiment, all animals were transferred to standard food and had free access to food and drinking water. […]
(§2) The total RNA was isolated from the liver samples of rats using the “ExtractRNA Reagent” (Evrogen, Moscow, Russia), and the samples containing 1 μg of RNA were transcribed to cDNA using the random oligodeoxynucleotide primers and the “MMLV RT kit” (Evrogen, Russia). […] The amplified signals were detected using the “Applied Biosystems® 7500 Real-Time PCR System” (Life Technologies, Carlsbad, CA, USA, Thermo Fisher Scientific Inc., USA). […] The obtained data were calculated with the delta–delta Ct method and expressed as a fold expression, relative to the corresponding control. […]

[2] = test system: male rats with HFD-induced obesity; experiment: Glucose tolerance test in obese rats after five-day treatment; format: in vivo, male Wistar rats; details: 4 10 mg/kg/day; for reduction of AUC0-120 of the glucose concentration curve vs untreated animals: GTT after five-day treatment, p < 0.05 vs Ob group; for reduction of AUC0-120 of the glucose concentration curve vs untreated animals / reduction of glucose level 120 min after glucose load vs untreated obese animals: 3 8 mg/kg/day; for reduction of glucose level 120 min after glucose load vs untreated obese animals: GTT glucose 2 g/kg i.p. after five-day treatment
Excerpt: (§3) The obesity model was induced at 16-weeks (starting at two months of age) using a high-fat diet. Control animals received standard laboratory chow pellets. The high-fat diet included supplements of 5–7 g of a fat mixture containing 52.4% pork lard, 41.7% curd, 5% liver, 0.5% L-methionine, 0.2% baker’s yeast, and 0.2% sodium chloride. After 16-weeks on a high-fat diet, the animals with increased body weight, glucose intolerance, and hyperinsulinemia, and hyperleptinemia were selected for further experiments. The glucose intolerance was estimated according to the results of the glucose tolerance test (GTT). In the GTT, 120 min after glucose loading, the blood glucose levels in obese rats were above 7 mM, and the AUC0-120 values for the curve “glucose concentration (mM)–time (minutes)” were above 30%, as compared to the average AUC0-120 values in the control group.
(§4) Further, six groups were formed: control (Con, n = 10), obesity (Ob, n = 10), obese rats with five-day treatment with compounds 1 (Ob + 1, n = 5), 2 (Ob + 2, n = 5), 3 (Ob + 3, n = 10), and 4 (Ob + 4, n = 10). All compounds were administered in DMSO (300 µL) at a daily dose of 7 mg/kg (1 and 2), 8 mg/kg (3), and 10 mg/kg (4) (i.p.), based on the results of the preliminary experiments. The used doses of compounds 1–4, in terms of the number of moles of each compound per kg of animal body weight, were equivalent. Control and obese rats received DMSO in the same volumes (300 µL), instead of the tested compounds. During the five days of the experiment, all animals were transferred to standard food and had free access to food and drinking water. […] The test was carried out on the morning of the next day after the last (fifth) injection of the compounds or DMSO, after a 10 h fast. The rest of the animals (n = 5 in each group) were anesthetized and decapitated on the last day of the experiment. The blood and liver samples were taken to measure blood glucose and hormone levels and gene expression in the liver.
The glucose levels in the blood obtained from the tail vein were measured using a glucometer (Life Scan Johnson & Johnson, Denmark) and the test strips “One Touch Ultra” (USA). The levels of insulin and leptin in rat serum were estimated with the “Rat Insulin ELISA” (Mercodia AB, Uppsala, Sweden) and “ELISA for Leptin, Rat” (Cloud-Clone Corporation, Houston, TX, USA) kits. The GTT was carried out using a single injection of glucose (2 g/kg, i.p.) after 10 h of fasting, as described earlier. The blood glucose levels were measured before (0 min) and 15, 30, 60, and 120 min after the glucose load.

PTP1B gene = experiment: Gene expression in the liver of obese rats (qPCR), PTP1B gene; format: in vivo, rat; details: five-day treatment, vs Ob group
Description: as §1, §2

[3] = test system: male rats with HFD-induced obesity; experiment: Body weight and food intake in obese rats, five-day treatment; format: in vivo, male Wistar rats; details: five-day treatment i.p., 3 8 mg/kg/day, 4 10 mg/kg/day; for reduction of body weight in obese rats: p < 0.05 vs untreated obese animals; for reduction of the consumption of dry standard food: obese rats
Description: The male Wistar rats (at the start of the experiment the age of the animals was 2-months, and at the end of the experiment their age was 6-months) were obtained from the Rappolovo animal facility (Russia). The animals were housed in plastic cages, five animals in each, with a normal light–dark cycle (12 h/12 h), a temperature of 22 ± 3 °C, and free access to food and water. All experiments were approved by the Institutional Animal Care and Use Committee at the Sechenov Institute of Evolutionary Physiology and Biochemistry (St. Petersburg, Russia) (protocol No 02/02-2020, 19 February 2020) and according to The Guide for the Care and Use of Laboratory Animals and the European Communities Council Directive of 1986 (86/609/EEC). All efforts were made to minimize animal suffering and reduce the number of experimental animals.
as §3
as §4, with “The blood and liver samples were taken to measure blood glucose and hormone levels and gene expression in the liver.” left out

Row | expression of the gene encoding the insulin receptor in the liver [1] | SMILES | reduction of AUC0-120 of the glucose concentration curve vs untreated animals [2] | reduction of glucose level 120 min after glucose load vs untreated obese animals [2] | glucose sensitivity in the glucose tolerance test ([2]; obese rats, five-day treatment) | expression of the PTP1B gene in the liver (PTP1B gene) | reduction of body weight in obese rats [3] | reduction of the consumption of dry standard food [3]
1 | slight decrease | O=c1c(CO)n[nH]c2ccc(Br)cc12 [Compound 4, 6-Bromo-3-(hydroxymethyl)cinnolin-4(1H)-one] | 20% | 17% | improved | significant difference to the Ob group | 22.6 ± 4.0 g | 39%
2 | slight decrease | O=c1c(CO)n[nH]c2ccc(Cl)cc12 [Compound 3, 6-Chloro-3-(hydroxymethyl)cinnolin-4(1H)-one] | 24% | 20% |  | significant difference to the Ob group | 22.2 ± 4.5 g | 46%
